The record followed here is ChEMBL document CHEMBL3400053, “trans-3,4-Disubstituted pyrrolidines as inhibitors of the human aspartyl protease renin. Part II: prime site exploration using an oxygen linker” (Bioorg Med Chem Lett, 2015).

Data set [1] addresses T1, Renin (Homo sapiens, UniProt P00797).
T1 sequence (P00797 whole entry): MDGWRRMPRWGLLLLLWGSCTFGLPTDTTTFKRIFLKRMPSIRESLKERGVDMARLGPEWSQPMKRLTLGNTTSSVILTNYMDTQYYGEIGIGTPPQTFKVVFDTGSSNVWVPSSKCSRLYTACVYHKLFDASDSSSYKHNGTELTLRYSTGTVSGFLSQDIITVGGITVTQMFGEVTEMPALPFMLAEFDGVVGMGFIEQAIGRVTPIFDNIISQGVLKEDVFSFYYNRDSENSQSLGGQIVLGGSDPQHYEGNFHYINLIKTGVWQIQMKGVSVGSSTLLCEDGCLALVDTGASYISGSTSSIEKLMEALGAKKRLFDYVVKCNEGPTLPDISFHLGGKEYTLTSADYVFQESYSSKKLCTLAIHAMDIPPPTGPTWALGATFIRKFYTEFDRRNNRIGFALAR
Put plainly: Inhibition of human recombinant renin by TR-FRET assay. In general terms: Time-resolved FRET reads energy transfer from a long-lived donor to a nearby acceptor.

For the next data set, the system named is Rattus norvegicus. Put plainly: Reduction in mean arterial blood pressure in orally dosed hypertensive telemetered double-transgenic rat overexpressing human renin and angiotensinogen. The format is functional, organism-based.
Data set [2] is described as follows: Ratio of permeability from basolateral to apical to side over apical to basolateral side in human Caco2 cells. Type of data set: ADME, cell-based. The conditions noted are these: caco-2. (Caco-2 monolayers are a common model of the intestinal barrier.)
In data set [3] the target is T1, Renin. Put plainly: Inhibition of human recombinant renin in presence of plasma by TR-FRET assay.
Another data set has as its target Cytochrome P450 3A4 (Homo sapiens, UniProt P08684). Put plainly: Inhibition of CYP3A4 (unknown origin) using 7-benzyl-4-trifluoromethylcoumarin as fluorometric substrate. The format is ADME.

As usually defined, the pIC50 is the IC50 on a negative log10 scale, so that one unit is a factor of ten.

pIC50: −log10 of the molar value.

Sequence of Cytochrome P450 3A4 (P08684 whole entry): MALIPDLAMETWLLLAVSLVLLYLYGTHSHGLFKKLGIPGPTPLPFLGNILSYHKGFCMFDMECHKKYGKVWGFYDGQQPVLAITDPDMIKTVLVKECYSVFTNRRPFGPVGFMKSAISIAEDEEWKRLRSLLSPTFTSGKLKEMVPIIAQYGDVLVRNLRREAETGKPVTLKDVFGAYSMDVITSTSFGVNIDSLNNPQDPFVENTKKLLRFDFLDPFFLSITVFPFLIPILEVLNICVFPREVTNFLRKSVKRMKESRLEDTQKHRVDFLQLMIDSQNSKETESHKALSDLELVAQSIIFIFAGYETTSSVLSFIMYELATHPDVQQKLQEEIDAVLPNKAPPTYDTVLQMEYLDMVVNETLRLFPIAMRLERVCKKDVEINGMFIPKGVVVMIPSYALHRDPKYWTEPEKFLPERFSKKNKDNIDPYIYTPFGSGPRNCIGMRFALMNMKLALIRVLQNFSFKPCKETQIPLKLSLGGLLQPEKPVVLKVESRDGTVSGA

`COCCCOc1cc(C(=O)N(C[C@H]2CNC[C@@H]2OC(=O)NCc2ccccc2)C(C)C)ccc1OC`: the pIC50 on Renin [1] is 5.04.

For the compound `COCCCOc1cc(C(=O)N(C[C@@H]2CNC[C@H]2OC(=O)NCc2ccccc2)C(C)C)ccc1OC`, in the data set on Rattus norvegicus, the inhibition entry is “Dose-dependent effect”.

As to `COCCCOc1cc(C(=O)N(C[C@@H]2CNC[C@H]2Oc2ccc(C(F)(F)F)cc2)C(C)C)ccc1OC` (racemic), on Renin [1], the pIC50 was 6.35.

Regarding `COCCCOc1cc(C(=O)N(C[C@@H]2CNC[C@H]2OCc2ccccc2)C(C)C)ccc1OC` (racemic), the pIC50 is 6.11 on Renin [1] and 6.07 on Renin [3]. Further, in data set [2], the Ratio is reported as 62.

Turning to `COCCCOc1cc(C(=O)N(C[C@H]2CNC[C@H]2OCc2ccccc2)C(C)C)ccc1OC` (racemic), on Renin [1], the pIC50 was 5.50.

For `COCCCOc1cc(C(=O)N(C[C@@H]2CNC[C@H]2OCc2cccc(OC)c2)C(C)C)ccc1OC` (racemic), the pIC50 is 6.60 on Renin [1] and not below 6.70 against Cytochrome P450 3A4.

For the compound `COCCCOc1cc(C(=O)N(C[C@@H]2CNC[C@H]2OCc2cccc(Oc3ccccc3)c2)C(C)C)ccc1OC` (racemic), the pIC50 at Renin [1] is 6.60.

Consider `COCCCOc1cc(C(=O)N(C[C@@H]2CNC[C@H]2OCc2cccc(-c3ccccc3)c2)C(C)C)ccc1OC` (racemic), for which the pIC50 on Renin [1] was 6.84; against Cytochrome P450 3A4, not below 6.70; on Renin [3], 5.96.

For the compound `COCCCOc1cc(C(=O)N(C[C@@H]2CNC[C@H]2OCc2cccc(-n3cccc3)c2)C(C)C)ccc1OC` (racemic), the pIC50 at Renin [1] was 7.07; against Cytochrome P450 3A4, not below 6.70.

For the compound `COCCCOc1cc(C(=O)N(C[C@@H]2CNC[C@H]2OCc2cccc(-c3cccc(C)c3)c2)C(C)C)ccc1OC` (racemic), at Renin [1], the pIC50 is 7.19.

For the compound `COCCCOc1cc(C(=O)N(C[C@@H]2CNC[C@H]2OCc2cccc(-c3cccc(OC)c3)c2)C(C)C)ccc1OC` (racemic), on Renin [1], the pIC50 is 6.46.

As for `COCCCOc1cc(C(=O)N(C[C@@H]2CNC[C@H]2OCc2cccc(-c3ccccc3OC)c2)C(C)C)ccc1OC` (racemic), at Renin [1], the pIC50 was 7.19.

Take `CCOc1ccccc1-c1cccc(CO[C@@H]2CNC[C@H]2CN(C(=O)c2ccc(OC)c(OCCCOC)c2)C(C)C)c1` (racemic): the pIC50 on Renin [1] was 6.26.

As to `COCCCOc1cc(C(=O)N(C[C@@H]2CNC[C@H]2OCc2cccc3ccccc23)C(C)C)ccc1OC` (racemic), the pIC50 at Renin [1] is 6.70.

As to `COCCCOc1cc(C(=O)N(C[C@@H]2CNC[C@H]2OCc2ccc3ccccc3c2)C(C)C)ccc1OC` (racemic), the pIC50 on Renin [1] was 7.05.

Regarding `COCCCOc1cc(C(=O)N(C[C@@H]2CNC[C@H]2OC(=O)Nc2cccc(OC)c2)C(C)C)ccc1OC` (racemic), on Renin [1], the negative logarithm of the IC50 (pIC50) was 6.52.

Turning to `COCCCOc1cc(C(=O)N(C[C@@H]2CNC[C@H]2OC(=O)NCc2ccccc2)C(C)C)ccc1OC` (racemic), the pIC50 on Renin [1] was 7.10.

With `COCCCOc1cc(C(=O)N(C[C@@H]2CNC[C@H]2OC(=O)N(C)Cc2ccccc2)C(C)C)ccc1OC` (racemic), the pIC50 on Renin [1] was 6.46.

Turning to `COCCCOc1cc(C(=O)N(C[C@@H]2CNC[C@H]2OC(=O)N2CCCC2)C(C)C)ccc1OC` (racemic), the pIC50 on Renin [1] is 5.94.

In the case of `COCCCOc1cc(C(=O)N(C[C@@H]2CNC[C@H]2OC(=O)NCc2ccco2)C(C)C)ccc1OC` (racemic), on Renin [1], the pIC50 was 7.05.

`COCCCOc1cc(C(=O)N(C[C@@H]2CNC[C@H]2OC(=O)NCc2nccs2)C(C)C)ccc1OC` (racemic): the negative-log IC50 (pIC50) on Renin [1] was 7.00.

`COCCCOc1cc(C(=O)N(C[C@@H]2CNC[C@H]2OC(=O)N(C)Cc2cccc3ccccc23)C(C)C)ccc1OC` (racemic): the values for the pIC50 on Renin [1] and on Renin [3] were 7.35 and 7.46, respectively.

Consider `COCCCOc1cc(C(=O)N(C[C@@H]2CNC[C@H]2OC(=O)N(C)Cc2cccc3c2OCO3)C(C)C)ccc1OC` (racemic), for which the pIC50 at Renin [1] was 7.70.

Consider `COCCCOc1cc(C(=O)N(C[C@@H]2CNC[C@H]2OC(=O)N(C)Cc2nc3ccccc3s2)C(C)C)ccc1OC` (racemic), for which the pIC50 at Renin [1] was 7.52.

`COCCCOc1cc(C(=O)N(C[C@@H]2CNC[C@H]2OC(=O)N(C)Cc2ccccc2-n2cccc2)C(C)C)ccc1OC` (racemic): the pIC50 on Renin [1] is 8.05.

For `COCCCOc1cc(C(=O)N(C[C@@H]2CNC[C@H]2OC(=O)N(C)Cc2ccccc2N2CCCC2)C(C)C)ccc1OC` (racemic), the pIC50 at Renin [1] was 7.10.
